“Also recorded” adds a separate entry of the source.
Tests used:
[1] = tested on: c-kit; assay: FACS-based c-kit degradation assay in HEL92.1.7 cells; assay type: cell-based; conditions: about 18 h, compounds at 0.5 and 0.05 μM, 17-AAG at 0.5 μM
Experimental: (§1) Two leukemia cell lines, HEL92.1.7 and Kasumi-1, were used for testing c-kit degradation induced by Hsp90 inhibitors of the invention. […] The cells were collected and centrifuged (SORVALL RT 6000D) at 1200 rpm for 5 min. The supernatants were discarded, and the cells were washed one time with 1×PBS. After centrifugation the cells were stained with FITC conjugated c-kit antibody (MBL International, Cat# K0105-4) in […] 1×PBS at 4° C. for 1 h. The samples were read and analysized with FACSCalibur flow cytometer (Becton Dicknson).

[2] = tested on: c-kit; assay: FACS-based c-kit degradation assay in Kasumi-1 cells; assay type: cell-based, human; conditions: about 18 h, compounds at 0.5 and 0.05 μM, 17-AAG at 0.5 μM
Experimental: as §1

[3] = tested on: c-Kit tyrosine kinase receptor (N822K mutation); assay: Western blot analysis of c-Kit in Kasumi-1 cells; assay type: cell-based, human; conditions: 100 nM and 400 nM
Source text: The results of the FACS analysis were confirmed with Western blot analysis (see FIG. 5). […] In contrast, 17-AAG had no effect of c-Kit protein levels.

[4] = tested on: phosphorylated Bcr-Abl; assay: Degradation of Bcr-Abl in KU812 cells (Western blot); assay type: cell-based; conditions: 18 hours
Experimental: KU812 chronic myeloid leukemia cells (ATCC) (2×10^6 cells), which harbor the Philadelphia chromosome that produces Bcr-Abl tyrosine kinase, were treated (0.1 μM and 1.0 μM) with either Compound 226, 17-AAG or 17-DMAG. After 18 hours, the cells were lysed with 1× lysis buffer, and a western blot was perform using anti-BCR-ABL antibody to detect phosphorylated Bcr-Abl.

[5] = tested on: A375 cells (B-raf V600E); assay: Cell survival in A375 melanoma cells (Cell Counting Kit-8); assay type: cell-based, human; conditions: 72 hours
Experimental: Human melanoma cell line, A375 (2×10^6 cells), which contains the V600E mutation in the B-raf protein that confers constitutive […] kinase activity, was obtained from American Type Culture Collection. A375 cells (20,000 cells/well) were cultured in 96-well plates and maintained at 37° C. for several hours. The cells were incubated at 37° C. for 72 hours with various concentrations of compound 226, 17AAG or 17DMAG. 17AAG and 17DMAG are Hsp90 inhibitors that are currently in clinical trials and are used here as positive controls for Hsp90 inhibition. Cell survival was measured with Cell Counting Kit-8 (Dojindo Laboratories, Cat # CK04).

[6] = tested on: Karpas-299 cells (NPM-ALK); assay: Cell survival in Karpas-299 cells (Cell Counting Kit-8); assay type: cell-based, human; conditions: 72 hours
Experimental: Growth of this tumor cell line is dependent upon the expression of the NPM-ALK fusion protein. Karpas-299 cells (20,000 cells/well) were cultured in 96-well plates and maintained at 37° C. for several hours. The cells were incubated at 37° C. for 72 hours with various concentrations of compound 226 of the invention, 17AAG, and 17DMAG. 17AAG and 17DMAG are Hsp90 inhibitors that are currently in clinical trials and are used here as positive controls for Hsp90 inhibition. Cell survival was measured with Cell Counting Kit-8 (Dojindo Laboratories, Cat # CK04).

[7] = tested on: human tumor cell line MDA-MB-435S; assay: MDA-MB-435S nude mouse xenograft model; assay type: in vivo; conditions: nude mice, 300 mg/kg body weight IP, 5 times per week for 3 weeks, versus vehicle
Experimental: FBS was obtained from Sigma-Aldrich Corp. (St. Louis, Mo., USA), and all other reagents were obtained from Invitrogen Corp. (Carlsbad, Calif., USA). Approximately 4−5×10 (6) cells that had been cryopreserved in liquid nitrogen were rapidly thawed at 37° C. and transferred to a 175 cm^2 tissue culture flask containing 50 ml of growth media and then incubated at 37° C. in a 5% CO2 incubator. The growth media was replaced every 2-3 days until the flask became 90% confluent, typically in 5-7 days. To passage and expand the cell line, a 90% confluent flask was washed with 10 ml of room temperature phosphate buffered saline (PBS) and the cells were disassociated by adding 5 ml 1× Trypsin-EDTA (Invitrogen) and incubating at 37° C. until the cells detached from the surface of the flask. To inactivate the trypsin, 5 ml of growth media was added and then the contents of the flask were centrifuged to pellet the cells. The supernatant was aspirated and the cell pellet was resuspended in 10 ml of growth media and the cell number determined using a hemocytometer. […]
Six to eight week old, female Crl:CD-1-nuBR (nude) mice were obtained from Charles River Laboratories (Wilmington, Mass., USA). […] Tumor volumes (V) were calculated by caliper measurement of the width (W), length (L) and thickness (T) of tumors using the following formula: V=[…]×(L×W×T). […]

[8] = tested on: MV 4-11 cells (FLT3-ITD); assay: Cell survival in MV-4-11 cells (Cell Counting Kit-8); assay type: cell-based, human; conditions: Homo sapiens, MV4-11, 72 hours
Experimental: Human acute myelogenous leukemia (AML) cell line, MV 4-11 (ATCC #CRL-9591), was obtained from the American Type Culture Collection (ATCC; Manassas, Va., USA). Growth of this tumor cell line is dependent upon the expression of an activated form of the FLT3 tyrosine kinase receptor carrying an internal tandem duplication (ITD) mutation, which is the most common molecular defect associated with AML (K. W. Yee et al., Blood 100:2941-2949, 2002). MV 4-11 cells (20,000 cells/well) were cultured in 96-well plates and maintained at 37° C. for several hours. The cells were incubated at 37° C. for 72 hours with various concentrations of compounds of the invention, 17AAG, or DMAG. 17AAG and DMAG are Hsp90 inhibitors that are currently in clinical trials and are used here as positive controls for Hsp90 inhibition. Cell survival was measured with Cell Counting Kit-8 (Dojindo Laboratories, Cat # CK04).

[9] = tested on: Kasumi-1 cells (c-Kit N822K); assay: Cell survival in Kasumi-1 cells (Cell Counting Kit-8); assay type: cell-based, human; conditions: Homo sapiens, 72 hours
Experimental: Kasumi-1 cells (20,000 cells/well) were cultured in 96-well plates and maintained at 37° C. for several hours. […] 17AAG and DMAG are Hsp90 inhibitors that are currently in clinical trials and are used here as positive controls for Hsp90 inhibition. […] Cell survival was measured with Cell Counting Kit-8 (Dojindo Laboratories, Cat # CK04).

[10] = tested on: K562 cells (Bcr-Abl); assay: Cell survival in K562 cells (Cell Counting Kit-8); assay type: cell-based, human; conditions: Homo sapiens, 72 hours
Experimental: Growth of this tumor cell line is dependent upon the expression of the Bcr-Abl fusion protein (C. Gambacarti-Passerini et al., Blood Cells Mol. Dis. 23:380-394, 1997). K562 cells (20,000 cells/well) were cultured in 96-well plates and maintained at 37° C. for several hours. […] 17AAG, DMAG, and Radicical are Hsp90 inhibitors that are currently in clinical trials and are used here as positive controls for Hsp90 inhibition. […] Cell survival was measured with Cell Counting Kit-8 (Dojindo Laboratories, Cat # CK04).

Q: For `C=CCNC1=C2C[C@@H](C)C[C@H](OC)[C@H](O)[C@@H](C)/C=C(\C)[C@H](OC(N)=O)[C@@H](OC)/C=C\C=C(/C)C(=O)NC(=CC1=O)C2=O` [Compound 17-AAG, 17-allylamino-17-demethoxygeldanamycin, reference compound], which “c-kit degradation (c-kit positive population, FACS)” value (“c-kit degradation” for short) [1] is on record?
A: Its value is “could not induce c-kit degradation”.

Q: What about the “c-kit degradation” value [2] of the same compound?
A: Its value is “could not induce c-kit degradation”.

Q: What about the “c-Kit protein levels (Western blot)” value [3] of the same compound?
A: Its value is “no effect”.

Q: Which results are given for `CO[C@H]1/C=C\C=C(/C)C(=O)NC2=CC(=O)C(NCCN(C)C)=C(C[C@@H](C)C[C@H](OC)[C@H](O)[C@@H](C)/C=C(\C)[C@@H]1OC(N)=O)C2=O` [Compound 17-DMAG]?
A: degradation of phosphorylated Bcr-Abl ([4]; 0.1 μM): partial degradation; degradation of phosphorylated Bcr-Abl ([4]; 1.0 μM): complete degradation

Q: Which results are given for `CO[C@H]1/C=C\C=C(/C)C(=O)NC2=CC(=O)C(NCCN(C)C)=C(C[C@@H](C)C[C@H](OC)[C@H](O)[C@@H](C)/C=C(\C)[C@@H]1OC(N)=O)C2=O` [Compound 17DMAG, 17-(2-dimethylaminoethyl-1)amino-17-desmethoxygeldanamycin]?
A: IC50 [5]: 0.004 µM; IC50 [6]: 0.062 µM

Q: `CCc1cc(-c2nnc(S)n2-c2cccc3ccccc23)c(O)cc1O` [Compound 49, 3-(2,4-Di-hydroxy-5-ethyl-phenyl)-4-(naphthalen-1-yl)-5-mercapto-triazole] was tested. Which “toxicity (effect on body weights)” value [7] did it give?
A: Its value is “not toxic; also recorded: not associated with significant toxicity”.

Q: `CCc1cc(-c2nnc(S)n2-c2ccc(OC)c3c2ccn3C(C)C)c(O)cc1O` [Compound 188, 3-(2,4-Dihydroxy-5-ethyl-phenyl)-4-(1-isopropyl-7-methoxy-indol-4-yl)-5-mercapto-[1,2,4]triazole] was tested. Which “c-kit degradation” value [1] did it give?
A: The value was “induced c-kit degradation”.

Q: And the “c-kit degradation” value [2]?
A: Its value is “induced c-kit degradation”.

Q: And the IC50 [8]?
A: Its IC50 is 0.025 µM.

Q: What about the IC50 [9] of the same compound?
A: The IC50 was 0.072 µM.

Q: Which IC50 [8] does the source give for `CCCn1ccc2c(-n3c(S)nnc3-c3cc(C4CC4)c(O)cc3O)ccc(OC)c21` [Compound 205, 3-(2,4-di-hydroxy-5-cyclopropyl-phenyl)-4-(1-propyl-7-methoxy-indol-4-yl)-5-mercapto-[1,2,4] triazole] here?
A: Its IC50 is 0.049 µM.

Q: Which results are given for `COc1ccc(-n2c(S)nnc2-c2cc(C(C)C)c(O)cc2O)c2ccn(C(C)C)c12` [Compound 208, 3-(2,4-di-hydroxy-5-isopropyl-phenyl)-4-(1-isopropyl-7-methoxy-indol-4-yl)-5-mercapto-[1,2,4] triazole]?
A: IC50 [8]: 0.02 µM; IC50 [9]: 0.049 µM

Q: With `CC(C)c1cc(-c2nnc(S)n2-c2ccc3c(ccn3C)c2)c(O)cc1O` [Compound 221, 3-(2,4-di-hydroxy-5-isopropyl-phenyl)-4-(N-methyl-indol-5-yl)-5-mercapto-[1,2,4] triazole] as the compound, how does the “c-kit degradation” value [1] read?
A: The value was “induced c-kit degradation”.

Q: What about the “c-kit degradation” value [2] of the same compound?
A: The value was “induced c-kit degradation”.

Q: And the “c-Kit protein levels (Western blot)” value [3]?
A: Its value is “induced the degradation of c-Kit”.

Q: Which IC50 [10] does the source give for `C[C@@H]1C[C@H]2O[C@@H]2/C=C\C=C\C(=O)Cc2c(Cl)c(O)cc(O)c2C(=O)O1` [Radicical, Radicicol] here?
A: Its IC50 is 0.331 µM.

From patent US20080004266A1, “Method for treating proliferative disorders associated with protooncogene products” (priority 2006, published 2008)
